Results from PMC6190829 (Journal of medicinal chemistry, 2018).
pKd: −log10 of the molar value. “And” between values parts separate entries of the source, which are not always exact repeats. Equal values may be shown once. “Also recorded” adds a separate entry of the source.

Assays:
HaCaT cells [1] = test: Immunoblot of NRF2, NQO1, GCLM protein levels; type: cell-based, human; details: 10 μM
[2] = Kinetic aqueous solubility in buffer pH 7.4; type: physicochemical
[3] = Microsomal stability, mouse liver microsomes; type: in vitro ADME; details: 1 μM, 20 min, NADPH
[4] = test system: Salmonella typhimurium (TA98, TA100, TA1535, TA1537) and Escherichia coli (WP2 uvrA (pKM101)); test: Mini-Ames assay, cytotoxicity and overall judgement over all strains; details: for Cytotoxicity in Mini-Ames assay: 1.5-1000 μg/well, any dose level; for Mutagenicity judgement: Mini-Ames, with and without S9
Solubility in DMSO = type: physicochemical
[5] = test system: Salmonella typhimurium (TA98, TA100, TA1535, TA1537); test: Mini-Ames assay, revertant colonies per strain; details: for Dose response of revertant increase: 6a: TA98 and TA100
HaCaT cells [6] = test: NRF2 target gene mRNA expression; type: cell-based, human; details: 10 μM
HaCaT cells [7] = test: Nuclear accumulation of NRF2; type: cell-based, human; details: 10 μM, 6 and 24 hours, vs DMSO control
Kelch domain of KEAP1 [8] = biological target: T1, Kelch domain of KEAP1 (Homo sapiens, UniProt Q14145); test: Surface plasmon resonance assay
T1 sequence (Q14145 321-609 limits assumed): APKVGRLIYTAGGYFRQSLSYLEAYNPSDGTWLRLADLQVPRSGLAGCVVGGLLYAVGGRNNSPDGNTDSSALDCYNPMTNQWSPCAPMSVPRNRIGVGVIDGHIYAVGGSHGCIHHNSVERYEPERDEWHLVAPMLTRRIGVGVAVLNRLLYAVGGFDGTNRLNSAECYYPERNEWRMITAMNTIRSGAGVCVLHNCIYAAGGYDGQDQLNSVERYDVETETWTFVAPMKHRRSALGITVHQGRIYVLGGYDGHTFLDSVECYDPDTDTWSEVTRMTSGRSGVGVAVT

Kelch domain of KEAP1 [9] = biological target: T1, Kelch domain of KEAP1; test: Fluorescence anisotropy; details: IC50 (nM) (95% CI), fluorescent NRF2 peptide / KEAP1 Kelch domain
[10] = cited from earlier work
[11] = with S9 mix, higher dose levels, vs vehicle control

## CC1(C)CC[C@]2(C(=O)n3ccnc3)CC[C@]3(C)[C@H](C(=O)C=C4[C@@]5(C)C=C(C#N)C(=O)C(C)(C)[C@@H]5CC[C@]43C)[C@@H]2C1 [CDDO-Im, reference compound]
HaCaT cells [1]; 24 h, vs vehicle
  GCLM protein level: significantly higher
  NQO1 protein level: higher
  NRF2 protein level: higher

## COc1ccc(S(=O)(=O)Nc2ccc(NS(=O)(=O)c3ccc(OC)cc3)c3ccccc23)cc1 [Compound 5]
[2]
  Aqueous solubility: modest aqueous solubilities

## COc1ccc(S(=O)(=O)N(CC(=O)O)c2ccc(N(CC(=O)O)S(=O)(=O)c3ccc(OC)cc3)c3ccccc23)cc1 [Compound 6a]
[3]
  Compound remaining after incubation, mouse liver microsomes: stable
[4]
  Cytotoxicity in Mini-Ames assay: No cytotoxicity
  Mutagenicity judgement: positive for mutagenicity
Solubility in DMSO
  solubility: ≤ 50 mg/mL
[5]
  Dose response of revertant increase: Dose response was also observed
[5]; [11]
  Increase in revertants, TA100: > 2 fold
  Increase in revertants, TA1535: > 3 fold

## COc1ccc(S(=O)(=O)N(CC(N)=O)c2ccc(N(CC(N)=O)S(=O)(=O)c3ccc(OC)cc3)c3ccccc23)cc1 [Compound 6b]
HaCaT cells [1]; 6 h, vs DMSO
  NQO1 protein level: modest increase
  NRF2 protein level: modest increase
HaCaT cells [1]; 24 h, vs vehicle
  GCLM protein level: significantly higher
  NQO1 protein level: Increased
  NRF2 protein level: Increased
[2]
  Aqueous solubility: poor solubility

## COc1ccc(S(=O)(=O)N(CC(=O)O)c2cnc(N(CC(=O)O)S(=O)(=O)c3ccc(OC)cc3)c3ccccc23)cc1 [Compound 17, 2,2’-(isoquinoline-1,4-diylbis(((4-methoxyphenyl)sulfonyl)azanediyl))diacetic acid]
HaCaT cells [1]; 24 h, vs vehicle
  GCLM protein level: significantly higher
  NQO1 protein level: Increased
  NRF2 protein level: Increased
[4]
  Cytotoxicity in Mini-Ames assay: No cytotoxicity
  Mutagenicity judgement: better mutagenic profile than naphthalene 6a
HaCaT cells [6]
  SOD mRNA expression (not an NRF2 target gene): neither isoquinoline 17 nor quinoline 23 produced a significant increase
HaCaT cells [6]; 6 hours
  GCLC mRNA expression: significant increase
  GCLM mRNA expression: significant increase
  HMOX1 mRNA expression: significant increase
HaCaT cells [6]; 24 hours
  NQO1 mRNA expression: increase
[5]
  Dose response of revertant increase: No dose response was observed

## COc1ccc(S(=O)(=O)N(CC(=O)O)c2ccc(N(CC(=O)O)S(=O)(=O)c3ccc(OC)cc3)c3ncccc23)cc1 [Compound 23]
HaCaT cells [7]
  NRF2 accumulation in the nucleus: small significant increase; also recorded: modest increase
HaCaT cells [1]; 6 h, vs DMSO
  NQO1 protein level: modest increase
  NRF2 protein level: modest increase
HaCaT cells [1]; 24 h, vs vehicle
  GCLM protein level: modestly increased
  NQO1 protein level: no effect
  NRF2 protein level: no effect
HaCaT cells [6]
  SOD mRNA expression (not an NRF2 target gene): neither isoquinoline 17 nor quinoline 23 produced a significant increase
HaCaT cells [6]; 6 and 24 hours
  GCLC mRNA expression: small increase
  GCLM mRNA expression: small increase
  HMOX1 mRNA expression: no increase
  NQO1 mRNA expression: small increase

## COc1ccc(S(=O)(=O)N(CC(=O)O)c2ccc(N(CC(=O)O)S(=O)(=O)c3ccc(OC)cc3)c3[nH]ccc23)cc1 [Compound 29, 2,2’-((1H-indole-4,7-diyl)bis(((4-methoxyphenyl)sulfonyl)azanediyl))diacetic acid]
Compound stability
  Stability of the compound: unstable

## COc1ccc(S(=O)(=O)Nc2nnc(N(CC(=O)O)S(=O)(=O)c3ccc(OC)cc3)c3ccccc23)cc1 [Compound 34, N-(4-((4-methoxyphenyl)sulfonamido)phthalazin-1-yl)-N-((4-methoxyphenyl)sulfonyl)glycine]
[3]
  Compound remaining after incubation, mouse liver microsomes: comparable to the other compounds
HaCaT cells [1]; 6 h, vs DMSO
  NQO1 protein level: no increase
  NRF2 protein level: no increase
Kelch domain of KEAP1 [8]
  pKd: < 5.00
Kelch domain of KEAP1 [9]
  IC50: 1000 nM and 1100 nM

## COc1ccc(S(=O)(=O)N(CC(=O)O)c2cc(-c3ccccc3)cc(N(CC(=O)O)S(=O)(=O)c3ccc(OC)cc3)c2)cc1 [Compound 46, 2,2’-(1,1’-biphenyl]-3,5-diylbis(((4-methoxyphenyl)sulfonyl)azanediyl) diacetic acid]
Kelch domain of KEAP1 [9]
  IC50: > 25000 nM

## Cc1cc(C)c(C)c(S(=O)(=O)Nc2ccc(N3CC[C@H](C(=O)O)C3)c3ccccc23)c1C [RA-839]
[10]; ref Winkel et al.[31]
  In vivo activity: active in vivo only if Phase 1 metabolism were inhibited
[10]; ref [31]
  In vivo metabolism: metabolized quickly in vivo
